Test results: ChEMBL document CHEMBL3885861, “Open TG-GATES”

Organism: Rattus norvegicus
Assay: Open TG-GATES - Regimen: Single
Type: toxicity, organism-based, Sprague-Dawley
Parameters: regimen Single, gender Male, age 6 weeks
Conditions: in vivo, po, 6 mg/kg, route gavage, dose level Low; for APTT / Bas / Eos / Fbg / Hb / Ht / Lym / MCH / MCHC / MCV / Mono / Neu / PT / Plat / RBC / Ret / WBC: tissue Blood; for KIDNEY_L / KIDNEY_R / KIDNEY_TOTAL: tissue Kidney; for LIVER: tissue Liver; for A/G / ALP / ALT / AST / BUN / CRE / Ca / Cl / DBIL / GLC / IP / K / LDH / Na / PL / RALB / TBIL / TC / TG / TP / gamma-GTP: tissue Plasma

## CC(C)NNC(=O)c1ccncc1 [IPRONIAZID]
3 h
  TERMINAL_BW: 204.8 g
  APTT: 22.1 s
  Bas: 0%
  Eos: 1%
  Fbg: 317 mg/dL
  Hb: 13.4 g/dL
  Ht: 38.8%
  Lym: 77%
  MCH: 21.1 pg
  MCHC: 34.5%
  MCV: 61.2 fL
  Mono: 1.8%
  Neu: 20%
  PT: 16.3 s
  Plat: 129.7 x10_4/uL
  RBC: 634.8 x10_4/ul
  Ret: 7.5%
  WBC: 72.5 x10_2/uL
  KIDNEY_L: 1 g
  KIDNEY_R: 1 g
  KIDNEY_TOTAL: 2 g
  LIVER: 9.7 g
  A/G: 1.2
  ALP: 1455.8 IU/L
  ALT: 40.8 IU/L
  AST: 83.8 IU/L
  BUN: 13.4 mg/dL
  CRE: 0.1 mg/dL
  Ca: 10.6 mg/dL
  Cl: 106.8 meq/L
  DBIL: 0.002 mg/dL
  GLC: 187.2 mg/dL
  IP: 9 mg/dL
  K: 4.1 meq/L
  LDH: 208.2 IU/L
  Na: 142 meq/L
  PL: 132.4 mg/dL
  RALB: 3.1 g/dL
  TBIL: 0.016 mg/dL
  TC: 67 mg/dL
  TG: 73.2 mg/dL
  TP: 5.6 g/dL
  gamma-GTP: 1.4 IU/L
6 h
  TERMINAL_BW: 201.3 g
  APTT: 22.8 s
  Bas: 0%
  Eos: 0.6%
  Fbg: 317 mg/dL
  Hb: 13.1 g/dL
  Ht: 38.4%
  Lym: 78.8%
  MCH: 20.9 pg
  MCHC: 34.1%
  MCV: 61.2 fL
  Mono: 2.2%
  Neu: 17.8%
  PT: 15.6 s
  Plat: 118.4 x10_4/uL
  RBC: 627.2 x10_4/ul
  Ret: 7.4%
  WBC: 69.8 x10_2/uL
  KIDNEY_L: 0.9 g
  KIDNEY_R: 0.9 g
  KIDNEY_TOTAL: 1.9 g
  LIVER: 8.9 g
  A/G: 1.2
  ALP: 1305.2 IU/L
  ALT: 36.8 IU/L
  AST: 73.2 IU/L
  BUN: 9.6 mg/dL
  CRE: 0.2 mg/dL
  Ca: 10.6 mg/dL
  Cl: 106.8 meq/L
  DBIL: 0.002 mg/dL
  GLC: 182.4 mg/dL
  IP: 9.2 mg/dL
  K: 4.3 meq/L
  LDH: 225.2 IU/L
  Na: 141.6 meq/L
  PL: 135.2 mg/dL
  RALB: 3.1 g/dL
  TBIL: 0.014 mg/dL
  TC: 74.2 mg/dL
  TG: 62.2 mg/dL
  TP: 5.5 g/dL
  gamma-GTP: 1 IU/L
9 h
  TERMINAL_BW: 205.8 g
  APTT: 22 s
  Bas: 0%
  Eos: 1%
  Fbg: 323.2 mg/dL
  Hb: 13.2 g/dL
  Ht: 38.7%
  Lym: 77.8%
  MCH: 20.8 pg
  MCHC: 34.1%
  MCV: 60.9 fL
  Mono: 2%
  Neu: 18.6%
  PT: 15.8 s
  Plat: 120.2 x10_4/uL
  RBC: 635.6 x10_4/ul
  Ret: 7.8%
  WBC: 99.2 x10_2/uL
  KIDNEY_L: 0.9 g
  KIDNEY_R: 1 g
  KIDNEY_TOTAL: 1.9 g
  LIVER: 8.7 g
  A/G: 1.2
  ALP: 1353 IU/L
  ALT: 37.2 IU/L
  AST: 72 IU/L
  BUN: 12.8 mg/dL
  CRE: 0.2 mg/dL
  Ca: 10.4 mg/dL
  Cl: 106.8 meq/L
  DBIL: 0.004 mg/dL
  GLC: 178.8 mg/dL
  IP: 10 mg/dL
  K: 4.2 meq/L
  LDH: 172.6 IU/L
  Na: 141.4 meq/L
  PL: 130.6 mg/dL
  RALB: 3 g/dL
  TBIL: 0.014 mg/dL
  TC: 74 mg/dL
  TG: 72.2 mg/dL
  TP: 5.5 g/dL
  gamma-GTP: 1.4 IU/L
24 h
  TERMINAL_BW: 218.2 g
  APTT: 21.7 s
  Bas: 0%
  Eos: 1%
  Fbg: 323.4 mg/dL
  Hb: 13.2 g/dL
  Ht: 38.3%
  Lym: 83.8%
  MCH: 21.2 pg
  MCHC: 34.5%
  MCV: 61.3 fL
  Mono: 2.6%
  Neu: 12.2%
  PT: 16.6 s
  Plat: 119.6 x10_4/uL
  RBC: 624 x10_4/ul
  Ret: 7.1%
  WBC: 95 x10_2/uL
  KIDNEY_L: 1 g
  KIDNEY_R: 1 g
  KIDNEY_TOTAL: 1.9 g
  LIVER: 10.2 g
  A/G: 1.2
  ALP: 1506.4 IU/L
  ALT: 43.2 IU/L
  AST: 74.6 IU/L
  BUN: 15.2 mg/dL
  CRE: 0.2 mg/dL
  Ca: 10.7 mg/dL
  Cl: 106.4 meq/L
  DBIL: 0.004 mg/dL
  GLC: 179.8 mg/dL
  IP: 7.4 mg/dL
  K: 4.6 meq/L
  LDH: 255 IU/L
  Na: 141.6 meq/L
  PL: 148.8 mg/dL
  RALB: 3 g/dL
  TBIL: 0.008 mg/dL
  TC: 83.2 mg/dL
  TG: 98.8 mg/dL
  TP: 5.5 g/dL
  gamma-GTP: 1.6 IU/L
